{
  "source": "patent US11039618B2",
  "about": "“Metam salts and polysulfide soil treatment” (Tessenderlo Kerley, Inc, priority 2016, dated 2021)",
  "key": {"Black Dot": {"system": "Black Dot", "test": "Field test near Moses Lake, Wash.: black dot colonies in soil after shank treatment", "design": "species or system Colletotrichum coccodes", "conditions": "single sample sites, 4 inches depth; metam 45 gal/acre; LSS 90 gal/acre; metam + LSS 30 + 30 gal/acre", "method": "(§1) A field test was performed in small plots in a grower's location in near Moses Lake, Wash. using commercial equipment, shanking the product 8-9 inches into the ground, in February 2016. A few treated areas were sampled a few months after treatment. This field is believed to be low in pest pressure. […] The mixture is compatible as a ground application, including using standard tanks, hoses, nozzles, and shanks. It is believed the product will also be stable when added to water to form a dilute product, due to the sodium or potassium hydroxide in metam. Therefore, alkali sulfide salts need not be added.\n(§2) Location 1 was treated with 45 gallons per acre of Sectagon®, the metam sodium solution, equivalent to 191 pounds metam sodium per acre. This is considered a standard treatment protocol. Section 2 was treated with only liquid lime sulfur, at 90 gallons per acre (276 pounds calcium polysulfide/acre). Section 3 was treated with 30 gallons per acre Sectagon® and 30 gallons per acre liquid lime sulfur (92 pounds calcium polysulfide and 127 pounds metam sodium per acre). The treatment chemicals were obtained from Tessenderlo Kerley. A sufficient time following the treatments, V. dahliae concentrations and black dot concentrations were determined at 4 inches depth and at 8 inches depth at three random sample sites in each treated plot. No controls were run, and the variability in samples were high. […]"}, "V. dahliae": {"system": "V. dahliae", "test": "Field test near Moses Lake, Wash.: V. dahliae colonies in soil after shank treatment", "design": "species or system Verticillium dahliae", "conditions": "average of three sample sites, metam sodium 191 pounds/acre, calcium polysulfide 276 pounds/acre", "method": "as §1, §2"}, "soilborne disease": {"system": "soilborne disease", "conditions": "about 40 gallons of metam sodium per acre (190 Kg/ha); commercial conditions; cited from earlier work"}, "Verticillium": {"system": "Verticillium", "test": "Jar test 2015: Verticillium microsclerotia colonies in treated soil (soil moisture 35% w/w)", "format": "cell-based, Verticillium dahliae", "conditions": "Metam 68 gal/acre (323 kg active/ha)", "method": "These investigations were performed under laboratory conditions in an initial jar test. We also investigated the pathogen control efficacy of LSS treatments, at 30 gal/acre (90 pounds/acre or 101 Kg/ha of calcium polysulfide) and at 90 gal/acre (276 pounds/acre or 310 Kg/ha of calcium polysulfide), and combined Metam/LSS treatments using Sectagon® brand metam at 20 gal/acre Metam (84 pounds/acre or 94 Kg/ha of metam sodium) with 40 gal/acre LSS (122 pounds/acre or 138 Kg/ha of calcium polysulfide); and at 30 gal/acre Metam (126 pounds/acre or […] of metam sodium) with 20 gal/acre LSS (60 pounds/acre or 67 kg/ha of calcium polysulfide). […] This may be due to lower water saturation in the 2016 tests compared to the saturation in 2015 tests, which was near 100%.\nThe major difference between the 2015 tests and the 2016 tests was soil moisture. For the 2015 tests the soil moisture was set at 35% w/w (ca. 100% field capacity). For the 2016 tests, the soil moisture was set at 20% w/w (ca. 66% field capacity).\nDifferences in test protocol between 2015 and 2016 tests are summarized below, and colony counts per gram of dry soil for the 2015 tests are shown below.\n2015: Soil Moisture 35% w/w (ca. 100% field capacity)\n2016: Decided 2015 soil moisture was too high; reduced to 20% w/w. […]"}, "Pythium": {"system": "Pythium", "test": "Example 6: Pythium population in treated farm soil samples", "format": "cell-based", "conditions": "soil from another location; average over rates: LSS 45 and 90 gal/acre; metam sodium 20 and 40 gal/acre; combination 20 and 40 gal metam with 45 gal LSS; untreated 150", "method": "Soil from a farm located in Washington state was treated with various solutions, and subsequently the population of Verticillium in treated samples were determined. Untreated samples contained 31 CFU per gram of dry soil. Soil treated with 90 gallons per acre liquid lime sulfur (276 pounds/acre or 309 kg/ha of calcium polysulfide) had less than 2 CFU per gram of dry soil. […] Samples treated with 170 pounds of metam sodium per acre and with a mixture of 138 pounds calcium polysulfide and 170 pounds of metam sodium per acre had about 70 to 80 CFU per gram of dry soil. […] The reason is not understood, and may reflect test protocols.\nClearly the test protocol and/or sample variability were over-riding factors. In tests on soil from another location, untreated soil had 150 CFU Pythium per gram of dry soil."}},
  "data": [
    {"compound": "CNC(=S)S", "note": "[Metam, sodium methyldithiocarbamate]", "values": [
      {"measurement": "Black Dot, 4″", "setting": "Black Dot", "value": "0 colonies per gram of soil"},
      {"measurement": "averaged colonies of V. dahlia per gram of soil at four inches", "setting": "V. dahliae; mixture 92 + 127 pounds/acre", "value": "30 colonies per gram of soil"},
      {"measurement": "averaged colonies of V. dahlia per gram of soil at eight inches", "setting": "V. dahliae; mixture 92 + 127 pounds/acre (8 inch samples called suspect)", "value": "3 colonies per gram of soil"},
      {"measurement": "reduction of certain soilborne disease", "setting": "soilborne disease", "value": "~70", "unit": "%"},
      {"measurement": "Microsclerotia (Verticillium) per gram of soil, ms/g, 2015", "setting": "Verticillium", "value": 3, "unit": "ms/g"},
      {"measurement": "average CFU Pythium per gram of dry soil", "setting": "Pythium", "value": "60 CFU per gram of dry soil"}
    ]}
  ]
}
